The values below come from US8404286B2, “Use of extracts or of extract compounds from Piper cubeba L. as active components in a medicament for the treatment of cancer” (Viridis Pharmaceutical Limited, priority 2007, dated 2013).

For experiment [1], the system named is LNCap cells. The settings on record: control value at zero extract; cited from earlier work.
Experiment [2] concerns LNCap cells. To be noted: control value at zero extract; cited from earlier work. This is another data set of the same source.
The test system of experiment [3] is LNCap cells. The experiment can be described thus: Apoptosis immuno-assay (mono and oligonucleosomes). The experiment is classed as cell-based. The settings on record: 2 days, 10% FBS. Here is the method:
The induction of apoptosis by means of the liquid extract P9605 prepared according to example 1 was determined.
As preliminary test was added for the measurement of the induction of apoptosis the tumor necrosis factor TNF-α alone as well as in combination with 100 nM dihydrotestosterone, abbreviated with DHT, to LNCap cells. The so treated cells were cultivated during 2 days in 10% FBS culture medium.
The apoptosis of the cells was measured by applying a commercial apoptosis-immuno-assay-kit in which are detected specifically the DNA and histon fragments that are present as mono and oligonucleosomes.
Analogous experiments were carried out with DHT alone as well as in combination with 10 μg/ml of the extract prepared according to the present invention.

The next experiment has as its system androgen receptor. The experiment can be described thus: Amount of androgen receptor by Western-blot analysis. The experiment is classed as cell-based. To be noted: 2 days, 10% FBS. Here is the method:
The influence of the generation of androgen receptors by means of the liquid extract P9605 prepared according to example 1 was determined.
Thereby in one experiment LNCap cells were cultivated during 2 days in 10% FBS culture medium to which were added different concentrations either of the extract prepared according to the present invention or of the pure substance Cubebin.
Then was determined the change of the amount of the androgen receptor by means of the Western-blot analysis.
In FIG. 10 are shown the bands of the androgen receptor.

The test system of a further experiment is PC-3 cells. The experiment in a line: Inhibition of the cell proliferation, PC-3 cells. The experiment is classed as cell-based. To be noted: PC-3, 4 days, 10% FBS culture medium, versus solvent control. Here is the method: (§1) With the liquid extract P9605 prepared according to example 1 were carried out cell proliferation tests. As control was carried along a typical substance of content of the cubeben fruits, the lignan Cubebin.
(§2) For the measurement of the inhibition of the cell proliferation this extract was added to LNCap and to PC-3 cells. The so treated cells were cultivated during 4 days in 10% FES culture medium.
(§3) For comparison the pure lignan Cubebin, that is contained in the extract prepared according to the invention and according to example 1 in an amount up to 20 m/m of the dry substance, was added also to LNCap and to PC-3 cells. The so treated cells were cultivated during 4 days in 10 FBS culture medium.
(§4) Thereby it was proceeded according to T. Lindl, Zell- und Gewebekultur, 4th revised edition, 2000, Spektrum Akademischer Verlag, Heidelberg.
(§5) All obtained datas are given in percents with regard to the solvent control (test without extract and without Cubebin); there are given the average values with Standard deviation from 4 experiments with 3-fold repetition.

A further experiment concerns the target T1, 5α-reductase type II (Homo sapiens, UniProt P31213).
T1 construct: expressed in transfected cells; host or cells: HEK293 (homogenate)
T1 sequence (P31213 1-254): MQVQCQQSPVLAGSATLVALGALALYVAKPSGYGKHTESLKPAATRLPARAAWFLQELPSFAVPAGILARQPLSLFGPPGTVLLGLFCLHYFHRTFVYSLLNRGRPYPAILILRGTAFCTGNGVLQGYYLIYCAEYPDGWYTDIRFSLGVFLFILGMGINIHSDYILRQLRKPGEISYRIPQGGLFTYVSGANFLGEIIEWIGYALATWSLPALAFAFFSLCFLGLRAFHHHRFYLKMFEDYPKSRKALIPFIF
The experiment can be described thus: Inhibition of the 5α-reductase type II activity (HEK293 homogenate, 3H-testosterone to 3H-DHT). The experiment is classed as biochemical. The settings on record: homogenate of HEK293 cells over expressing the enzyme. Here is the method: The inhibition of the 5α-reductase type II activity by means of the liquid extract P9605 prepared according to example 1 was determined.
The assay was realized with a homogenate of HEK293 cells that over express the 5α-reductase type II (Reichert W., Hartmann R. W. and Jose J.; 2001, Journal Enzyme Inhibition, Vol. 16, 47-53).
The influence of the extract prepared according to the present invention and of the pure substance Cubebin on the activity of the 5α-reductase type II was determined by means of the measurement of the conversion of ^3H-testosterone in ^3H-DHT.
As control substance was used the known 5α-reductase inhibitor “Finasterid”.
All obtained datas are given in percents with regard to the solvent control (test without extract); there are given the average values with Standard deviation from 4 experiments with 3-fold repetition.

The subject of experiment [4] is prostate specific antigen (PSA). The experiment can be described thus: Secretion of the prostate specific antigen (immuno-assay, PSA/DNA). The experiment is classed as cell-based. To be noted: LNCap, 2 days, 10% CSS, different concentrations.
Experiment [5] deals with LNCap cells. The experiment can be described thus: Inhibition of the cell proliferation, LNCap cells. The experiment is classed as cell-based. To be noted: 4 days, 10% FBS culture medium, versus solvent control. The procedure: as §1, §2, §3, §4, §5

`C[C@]12CCC(=O)C[C@@H]1CC[C@@H]1[C@@H]2CC[C@]2(C)[C@@H](O)CC[C@@H]12` [DHT, dihydrotestosterone]: the “effect of DHT on the cell proliferation” value in the experiment with LNCap cells [1] is “enhances the cell proliferation”. In the experiment with LNCap cells [2], the “effect of DHT on the DNA synthesis” value is recorded as “enhances the DNA synthesis”. The “effect on the TNF-α induced apoptosis” value with LNCap cells [3] (TNF-α in combination with 100 nM DHT) was “revoked completely or nearly completely”.

For the compound `OC1OC[C@H](Cc2ccc3c(c2)OCO3)[C@H]1Cc1ccc2c(c1)OCO2` (mixture of isomers) [Cubebin], in the experiment on androgen receptor, the “androgen receptor denseness in LNCap cells” value is “reduced increasingly in dependency of the dose”. In addition, the “anti-proliferate effect on PC-3 cells” value with PC-3 cells was “anti-proliferate effect on LNCap and PC-3 cells in dependency of the respective dose”. At 5α-reductase type II, the “IC50-value, 5α-reductase type II” value was 9.9 µg/mL and the “inhibitive effect on the activity of the 5α-reductase type II” value is given as “inhibitive effect”. Moreover, the “inhibition of the secretion of PSA (PSA/DNA)” value in experiment [4] is recorded as “inhibit the secretion of the prostate specific antigen (PSA) in dependency of the respective dose”. In addition, the “anti-proliferate effect on LNCap cells” value with LNCap cells [5] is “anti-proliferate effect on LNCap and PC-3 cells in dependency of the respective dose”.

On to `CC(C)(C)NC(=O)[C@H]1CC[C@H]2[C@@H]3CC[C@H]4NC(=O)C=C[C@]4(C)[C@H]3CC[C@]12C` [Finasterid], for which the “inhibitive effect on the activity of the 5α-reductase type II” value at 5α-reductase type II is reported as “inhibiting effect”.

Consider TNF-α, for which the induction of apoptosis result in the experiment with LNCap cells [3] (TNF-α alone) is “induces the apoptosis of the tumor cells in dependency of the dose”.
